Laboratory results as given in EP0176369A2, “7-(Alpha-(4-oxo-2-azetidinyl(or -azetidinylalkyl)-oxyimino)-alpha-(2-amino-4-thiazolyl)acetamido]-3- substituted-Delta 3-cephem-4-carboxylic acid compounds and salts thereof, their production, and medicaments containing them” (YAMANOUCHI PHARMACEUTICAL CO. LTD., priority 1984, dated 1986).
In brackets after ≈: the same amount, converted by molar mass.

How the values were obtained:
Assay in all cases: Antibacterial activity (minimum effective inhibitory concentration)
Type in all cases: cell-based
[1] = test system: Kleb. pneumoniae ATCC 10031; conditions: Klebsiella pneumoniae, ATCC10031, read-out: minimum effective inhibitory concentrations
Text: (§1) Antibacterial activities (minimum effective inhibitory concentrations) of compounds of formula I (taken from the following Examples) are shown in the following Table.

[2] = test system: Serr. marcescens II D 620; conditions: Serratia marcescens, IID620, read-out: minimum effective inhibitory concentrations
Text: as §1

[3] = test system: Staph. epidermidis IIb 866; conditions: Staphylococcus epidermidis, IIB866, read-out: minimum effective inhibitory concentrations
Text: as §1

[4] = test system: Ps. aeruginosa NCTC 10490; conditions: Pseudomonas aeruginosa, NCTC10490, read-out: minimum effective inhibitory concentrations
Text: as §1

Sal. enteritidis 1891 = conditions: Salmonella enterica, read-out: minimum effective inhibitory concentrations
Text: as §1

MIC [1]	MIC [2]	MIC [3]	MIC [4]	MIC (Sal. enteritidis 1891)	SMILES
0.05 µg/mL	0.1 µg/mL	0.78 µg/mL	0.1 µg/mL	0.1 µg/mL	Nc1nc(C(=NOC2CC(=O)N2)C(=O)NC2C(=O)N3C(C(=O)O)=C(CSc4nnnn4CCO)CSC23)cs1 (centres unmarked) [Example 2, sodium (Z)-7[-(2-amino-4-thiazolyl)-∝-(4-oxo-2-azetidingloxyiino)acetamido]-3-[1-(2-gtdrixy-ethyl)-5-tetrazolyl]thiomethyl-^3-cephem-4-carboxcylate]
0.1 µg/mL (≈ 0.184 µM)	0.1 µg/mL (≈ 0.184 µM)	0.2 µg/mL (≈ 0.367 µM)	0.78 µg/mL (≈ 1.43 µM)	0.1 µg/mL (≈ 0.184 µM)	Nc1ccc[n+](CC2=C(C(=O)[O-])N3C(=O)C(NC(=O)C(=NOC4CC(=O)N4)c4csc(N)n4)C3SC2)c1 (stereo not drawn) [Example 4, (Z)-7-[α(-2-amino-4-thiazolyl) -α-(4-oxo-2-azetidinyloxyimino)acetamido]-3-(3-amino-pyridiniomethyl)-^3-cephem-4-carboxylate]
0.05 µg/mL (≈ 0.0934 µM)	0.1 µg/mL (≈ 0.187 µM)	0.2 µg/mL (≈ 0.373 µM)	0.39 µg/mL (≈ 0.728 µM)	0.05 µg/mL (≈ 0.0934 µM)	C[N+]1(CC2=C(C(=O)[O-])N3C(=O)C(NC(=O)C(=NOC4CC(=O)N4)c4csc(N)n4)C3SC2)CCCC1 (centres unmarked) [Example 7, (Z)-7-[ -(2-amino-4-thiazolyl)- -(4-oxo-2-azetidinyloxyimino)-acetamido]-3-(1-methyl-1-pyrrolidiniomethyl)-3-cephem-4-carboxylate]
0.025 µg/mL	0.05 µg/mL	0.2 µg/mL	0.78 µg/mL	0.025 µg/mL	Cn1nnnc1SCC1=C(C(=O)O)N2C(=O)C(NC(=O)C(=NOC3CC(=O)N3)c3csc(N)n3)C2SC1 (stereo not drawn) [Example 1, sodium (Z)-7-[α-(4-oxo-2-azptidinyloxyimino)-4-(2-amino-4-thiazolyl)acet-amido]-3-(1-methyl-5-tetrazolyl)thiomethyl-Δ^3-cephem-4-carboxylate]
